Laboratory results from patent publication US10131651B2, “[7,6]-fused bicyclic antidiabetic compounds” (Merck Sharp & Dohme Corp., priority 2014, dated 2018).

target: human GPR40 (Homo sapiens (Human), UniProt O14842); experiment: Inositol Phosphate Turnover (IP1) Assay; format: cell-based; conditions: HEK cells stably expressing human GPR40
Method: Human and mouse GPR40 stable cell-lines were generated in CHO cells stably expressing NFAT BLA (Beta-lactamase). A human GPR40 stable cell-line was generated in HEK cells stably expressing the acquorin expressing reporter. The expression plasmids were transfected using lipofectamine (Life Technologies) following manufacturer's instructions. Stable cell-lines were generated following drug selection.
The assay is performed in 384-well format. HEK cells stably expressing human GPR40 are plated at 15,000 cells per well in growth medium (DMEM/10% fetal calf serum). Cell plates are then incubated 16 hours at 37 degrees in a 5% CO2 incubator.
Measurement of Inositol Phosphate Turnover (IP1) is performed using the CisBio IP-One kit (Part number 62IPAPEB). After the 16 hour incubation, the cells are washed with HEPES buffer and 10 ul of stimulation buffer (prepared as described in the kit) is added to each well. In a separate plate, compounds are diluted in DMSO (400-fold over the final concentration in the assay well) and 25 nl is acoustically transferred to the appropriate well in the assay cell plate. The plates are then incubated for 60 minutes at 37 degrees. 10 ul of detection buffer (also prepared as described in the IP-One kit) is added to each well and the plates are incubated for 60 minutes in the dark. The plates are then read in a Perkin Elmer EnVision or equivalent reader able to measure FRET. Fluorescent ratio of emission at 665 and 620 nm is then converted to IP1 concentration by back calculating from an IP1 standard curve prepared at the time of the assay.

Sequence of human GPR40 (O14842 whole entry): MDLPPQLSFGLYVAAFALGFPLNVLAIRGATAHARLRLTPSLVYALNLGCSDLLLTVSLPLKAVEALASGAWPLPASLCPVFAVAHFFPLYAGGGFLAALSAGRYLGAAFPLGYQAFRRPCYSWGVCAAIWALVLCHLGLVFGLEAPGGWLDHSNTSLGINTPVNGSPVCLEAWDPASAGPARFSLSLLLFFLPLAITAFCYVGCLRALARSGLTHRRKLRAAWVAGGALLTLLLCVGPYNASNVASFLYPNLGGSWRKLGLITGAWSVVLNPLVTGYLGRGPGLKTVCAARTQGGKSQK

EC50	SMILES
6 nM	COc1ccc(F)c(-c2ccc(C3CCCc4ccc([C@H](C5CCC5)[C@H](C)C(=O)O)cc4O3)cc2)c1 (single isomer, unassigned) [Example 11, Sodium (2S,3R)-3-cyclobutyl-3-((R or S)-2-(2′-fluoro-5′-methoxy-[1,1′-biphenyl]-4-yl)-2,3,4,5-tetrahydrobenzo[b]oxepin-8-yl)-2-methylpropanoate]
3 nM	COc1cc(-c2ccc(C3CCCc4ccc([C@H](C5CC5)[C@H](C)C(=O)O)cc4O3)nc2)c(F)cn1 (mixture of isomers) [Example 7, (2S,3R)-3-cyclopropyl-3-((RS)-2-(5′-fluoro-2′-methoxy-[3,4′-bipyridin]-6-yl)-2,3,4,5-tetrahydrobenzo[b]oxepin-8-yl)-2-methylpropanoic acid]
29 nM	COc1cc(-c2ccc(C3CCCc4ccc([C@H](C5CC5)[C@H](C)C(=O)O)cc4O3)nc2)c(F)cn1 (single isomer, unassigned) [Example 8, (2S,3R)-3-cyclopropyl-3-((R or S)-2-(5′-fluoro-2′-methoxy-[3,4′-bipyridin]-6-yl)-2,3,4,5-tetrahydrobenzo[b]oxepin-8-yl)-2-methylpropanoic acid]
116 nM	COc1cc(-c2cnc(C3CCCc4ccc([C@H](C5CC5)[C@H](C)C(=O)O)cc4O3)cn2)c(F)cn1 (single isomer, unassigned) [Example 12]
3.6 nM	COc1cc(-c2ccc(C3CCCc4ccc([C@H](C5CC5)[C@H](C)C(=O)O)cc4O3)c(F)c2)ccn1 (single isomer, unassigned) [Example 1, (2S,3R)-3-cyclopropyl-3-((R or S)-2-(2-fluoro-4-(2-methoxypyridin-4-yl)phenyl)-2,3,4,5-tetrahydrobenzo[b]oxepin-8-yl)-2-methylpropanoic acid]
684 nM	COc1cc(-c2cnc(C3CCCc4ccc([C@H](C5CC5)[C@H](C)C(=O)O)cc4O3)cn2)c(F)cn1 (single isomer, unassigned) [Example 13]
3.1 nM	COc1cc(-c2ccc(C3CCCc4ccc([C@H](C5CC5)[C@H](C)C(=O)O)cc4O3)cc2)c(F)cn1 (mixture of isomers) [Example 5, (2S,3R)-3-cyclopropyl-3-((RS)-2-(4-(5-fluoro-2-methoxypyridin-4-yl)phenyl)-2,3,4,5-tetrahydrobenzo[b]oxepin-8-yl)-2-methylpropanoic acid]
5.2 nM	COc1cc(-c2ccc(C3CCCc4ccc([C@H](C5CC5)[C@H](C)C(=O)O)cc4O3)cc2)c(F)cn1 (single isomer, unassigned) [Example 6, (2S,3R)-3-cyclopropyl-3-((R or S)-2-(4-(5-fluoro-2-methoxypyridin-4-yl)phenyl)-2,3,4,5-tetrahydrobenzo[b]oxepin-8-yl)-2-methylpropanoic acid]
13 nM	C[C@H](C(=O)O)[C@H](c1ccc2c(c1)OC(C1CN(Cc3cc(C(F)(F)F)ccc3C(F)(F)F)C1)CCC2)C1CC1 (single isomer, unassigned) [Example 3, (2S, 3R)-3-((R or S)-2-(1-(2,5-bis (trifluoromethyl)benzyl)azetidin-3-yl)-2,3,4,5-tetrahydrobenzo[b]oxepin-8-yl)-3-cyclopropyl-2-methylpropanoic acid]
27 nM	C[C@H](C(=O)O)[C@H](c1ccc2c(c1)OC(C1CN(Cc3cc(C(F)(F)F)ccc3C(F)(F)F)C1)CCC2)C1CC1 (single isomer, unassigned) [Example 4, (2S,3R)-3-((R or S)-2-(1-(2,5-bis(trifluoromethyl)-benzyl)azetidin-3-yl)-2,3,4,5-tetrahydrobenzo[b]-oxepin-8-yl)-3-cyclopropyl-2-methylpropanoic acid]
14 nM	COc1cc(-c2ccc(C3CCCc4ccc([C@H](C5CC5)[C@H](C)C(=O)O)cc4O3)c(F)c2)ccn1 (single isomer, unassigned) [Example 2, (2S,3R)-3-cyclopropyl-3-((R or S)-2-(2-fluoro-4-(2-methoxypyridin-4-yl)phenyl)-2,3,4,5-tetrahydrobenzo[b]oxepin-8-yl)-2-methylpropanoic acid]
4.6 nM	COc1ccc(F)c(-c2ccc(C3CCCc4ccc([C@H](C5CCC5)[C@H](C)C(=O)O)cc4O3)cc2)c1 (single isomer, unassigned) [Example 10, Sodium (2S,3R)-3-cyclobutyl-3-((R or S)-2-(2′-fluoro-5′-methoxy-[1,1′-biphenyl]-4-yl)-2,3,4,5-tetrahydrobenzo[b]oxepin-8-yl)-2-methylpropanoate]
